# Values joined by “and” are separate entries in the source; they are usually repeats but may differ in a detail not shown here. Identical values can stand only once.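 Tested at 5 concentrations; 48 h exposure; 96-well plates; endpoints linearly interpolated, else capped at highest concentration. GI50 is the concentration that inhibits growth by half. TGI: total growth inhibition.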
# Columns and labels:
# Test in all cases: NCI tumour cell line growth inhibition, 48 h
# [1] = test system: SK-OV-3 ovarian
# [2] = test system: SF-539 CNS
# [3] = test system: SF-295 CNS
# [4] = test system: CAKI-1 renal
# [5] = test system: OVCAR-5 ovarian
# [6] = test system: PC-3 prostate
# [7] = test system: K-562 leukemia
# [8] = test system: UACC-257 melanoma
# [9] = test system: MCF7 breast
# [10] = test system: SK-MEL-5 melanoma
SMILES,TGI [1] [µM],TGI [2],TGI [3],TGI [4] [µM],TGI [5],TGI [6] [µM],TGI [7] [µM],TGI [8],TGI [9] [µM],TGI [10],GI50 [1],GI50 [2],GI50 [3],GI50 [4],GI50 [5],GI50 [6],GI50 [7] [µM],GI50 [8],GI50 [9],GI50 [10]
COc1cc(-c2cc(O)c(-c3ccc4ccccc4n3)c(=O)[nH]2)cc(OC)c1OC,> 73.2,74.5 µM,> 67.7 µM,> 87.9,> 94.2 µM,> 100,> 32.1,> 100 µM,> 100,62.6 µM,,,,,,,,,,
O=C(c1ccccc1)C(CN1CCCCC1)c1ccccc1 (stereo not given),24.8,3.94 µM,17.5 µM,2.45,5.43 µM,3.83,14.2,4.06 µM,37.8,6.74 µM,7.27 µM,1.96 µM,4.85 µM,1.08 µM,2.67 µM,1.69 µM,0.712,1.73 µM,2.81 µM,2.38 µM
CC(C)=CCC[C@](C)(O)[C@H]1CC[C@]2(C)[C@@H]1CC[C@@H]1[C@@]3(C)CC/C(=N/O)C(C)(C)[C@@H]3CC[C@]12C,> 100,> 100 µM,42.3 µM,50.7,> 100 µM,35.9,> 100,> 100 µM,> 100,> 100 µM,25.7 µM,24.3 µM,12.2 µM,10.4 µM,22.2 µM,7.87 µM,6.06,29.5 µM,4.2 µM,19.4 µM
CO/N=C(\C)c1ccc(Nc2cc(-c3ccccc3)nc3ccc(OC)cc23)cc1,60.4,4.74 µM,4.82 µM,5.16,40.3 µM,16.2,> 100,> 100 µM,24.4,3.31 µM,15.2 µM,2.72 µM,2.02 µM,2.05 µM,5.2 µM,4.17 µM,5.42,4.64 µM,5.01 µM,1.77 µM
Cc1nc(-c2cn3c(n2)-c2ccc(-c4cnn(C(C)(C)C(N)=O)c4)cc2OCC3)n(C(C)C)n1,0.137,6.13 µM and 5.83 µM,16.7 µM and > 10 µM,> 100,32.3 µM and > 10 µM,> 75.3,> 75.7,26.1 µM and > 10 µM,> 50.5,17.2 µM and > 10 µM,< 0.0126 µM and 0.0162 µM,0.654 µM and 0.493 µM,0.894 µM and 0.838 µM,1 µM and 1.2 µM,0.17 µM and 0.976 µM,0.249 µM and 0.374 µM,8.86,0.297 µM and 0.733 µM,< 0.01 µM and 0.00991 µM,4.1 µM and 2.79 µM
Cc1nc2ccccc2c(/C=C/c2ccc(Cl)cc2)c1C(=O)/C=C/c1ccc(C(F)(F)F)cc1,3.1,0.636 µM,2.79 µM,1.52,2.84 µM,2.18,> 100,2.93 µM,1.55,2.63 µM,1.67 µM,0.24 µM,1.47 µM,0.386 µM,0.821 µM,0.537 µM,0.31,1.06 µM,0.303 µM,1.34 µM
C/C(=N\NS(=O)(=O)c1ccc(C)cc1)P(=O)(O)O,> 100,> 100 µM,> 100 µM,> 100,> 100 µM,> 100,> 100,> 100 µM,> 100,> 100 µM,,,,,,,,,,
CCN(CC)CCCNCc1cc(-c2ccccc2)nc2ccccc12,> 100,8.49 µM,44.7 µM,> 100,> 100 µM,> 100,22.1,18.3 µM,16.9,18.7 µM,52.1 µM,3.24 µM,16.5 µM,19.5 µM,37.9 µM,11.2 µM,5.63,5.11 µM,4.12 µM,5.49 µM
C[C@@]12CCC[C@@](C)(C(=O)O)C1CC[C@]13C[C@@](O)(CO)[C@](O)(CCC12)C3 (stereo not given in full),> 100,> 100 µM,> 100 µM,> 100,> 100 µM,> 100,> 100,> 100 µM,> 100,> 100 µM,> 100 µM,> 100 µM,> 100 µM,> 100 µM,> 100 µM,> 100 µM,> 100,> 100 µM,> 100 µM,> 100 µM
CCN(CC)CC(O)CNc1c2ccc([N+](=O)[O-])cc2nc2cc(OC)c(OC)cc12 (stereo not given),2.84,1.45 µM,2.06 µM,16.6,2.55 µM,1.05,10.9,3.83 µM,0.761,0.769 µM,0.535 µM,0.35 µM,0.41 µM,4.5 µM,0.306 µM,0.329 µM,0.396,1.45 µM,0.0534 µM,0.273 µM
